Patent publication US5045566A, “Novel imidate insecticides” (ICI Americas Inc., priority 1989, dated 1991)

What was measured:
Assay type in all cases: in vivo
[1] = tested on: Black Bean Aphid [Aphis fabae (Scop.)]; experiment: Black bean aphid spray test on nasturtium (BBA), 48 hours; settings: percent of test compound in sprayed solution
Outline: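 LC50, given as percent test compound in the sprayed liquid, was calculated from dosage-mortality curves using concentrations from 0.05% downward. Sprays in 50:50 acetone-water went to runoff on ~5 cm nasturtiums carrying 25-50 aphids of mixed ages, one day after infestation. Deaths were counted 48 h later under greenhouse conditions.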

[2] = tested on: Housefly [Musca domestica]; experiment: Housefly contact mortality in dishes (HF), 48 hours; settings: μg of test compound per 25 female flies
Outline: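 Acetone solutions (with 0.01% peanut oil) dried onto dish bottoms, then 25 female flies, 1-2 days old, caged over the residue with sugar water. Mortality scored at 48 hours; LC50 from dosage-mortality curves, in μg per 25 female flies, top level 100 μg.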

[3] = tested on: Tobacco Budworm [Heliothis virescens (Fabricius)] eggs; experiment: Tobacco budworm eggs (TBW-E); settings: percent in solution; 2-day old eggs
Outline: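 Paper towel patches bearing 2-day old eggs were dipped in acetone solutions of compound, then set in petri dishes over larval rearing medium at 78° F. Mortality was scored once all control eggs had hatched and larvae were feeding. LC50, from dosage-mortality curves, is given as percent compound in solution.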

[4] = tested on: Rice water weevil [Lissorhoptrus oryzophilus (Kuschel)]; experiment: Rice water weevil topical (RWW), 48 hours; settings: μg of test compound per weevil, female adults
Description: (§1) The compounds in Tables 1 and 2 above were tested for insecticidal activity using the following testing procedures. LC50 values, based on the results of these tests and calculated according to dosage-mortality curves, are expressed in Table 3.
Rice water weevil [Lissorhoptrus oryzophilus (Kuschel)]:
Test compounds were diluted in acetone. Droplets (1 ul) of test solutions were applied to the ventral abdomens of ten female adult weevils. The treated weevils were placed in containers with wet cotton balls and rice foliage. The containers were covered and kept at a temperature of about 25° C. Mortality was recorded after 48 hours. Test concentrations ranged from […] down to that at which 50% mortality occurred. The LC50 values are expressed below in Table 3 under the heading "RWW" in terms of μg of test compound per weevil.

[5] = tested on: Cabbage Looper [Trichoplusia ni (Hubner)]; experiment: Cabbage looper leaf dip (CL), 3-5 days; settings: percent in solution, second-instar larvae
Outline: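 Compounds in 50-50 acetone-water were applied by dipping squash cotyledons (about 1×1.5 in) for 2-3 s; dried leaves went into petri dishes on moist filter paper with 5 second-instar larvae under high humidity. Mortality was scored after 3-5 days; LC50 from dosage-mortality curves, as percent compound in solution.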

[6] = tested on: Maize weevil [Sitophilus zeamais (Motschulsky)]; experiment: Maize weevil on dipped corn seeds (MW), 48 hours; settings: percent in solution, adult weevils
Outline: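 LC50, given as percent of compound in dipping solution, comes from dosage-mortality curves over concentrations descending from 0.01%. Four corn seeds soaked 2-3 s in 50:50 acetone:water solution were dried and held with 10 adult weevils, about 25° C, mortality read after 48 h.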

[7] = tested on: Beet Armyworm (Spodoptera exigua); experiment: Beet armyworm leaf dip (BAW), 5 days; settings: percent in solution; second-instar larvae; five days
Description: as §1
Beet Armyworm (Spodoptera exigua):
Test compounds were diluted in a 50-50 acetone-water solution. Young leaves of sugar beets (Beta vulgaris) were immersed in the test solutions for 2-3 seconds and placed on a wire screen to dry. The dried leaves were placed in petri dishes containing a moistened filter paper and infested with five second-instar beet armyworm larvae. The dishes were placed in a high humidity chamber. Mortality of the larvae was recorded five days later. Test concentrations ranged from 0.1% downward. The LC-50 values are expressed below in Table 3 under the heading "BAW" in terms of percent of the test compound in solution.

[8] = tested on: Aster Leafhopper [Macrosteles fascifrens (Stal)]; experiment: Aster leafhopper on dipped oat seedlings (LH), 48 hours; settings: percent in solution, adults/nymphs
Outline: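 Three ~10 cm oat seedlings per cup were dipped 2-3 seconds in 50-50 acetone-water compound solutions, dried, and caged with ten adult/nymph leafhoppers. Mortality was counted after 48 hours at concentrations from 0.05% downward. LC50, as percent compound in solution, came from dosage-mortality curves.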

[9] = tested on: Tobacco Budworm [Heliothis virescens (Fabricius)] larvae; experiment: Tobacco budworm larvae, contact (TBW-C), 5 days; settings: percent in solution, second-instar larvae
Outline: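 Cotton cotyledons dipped 2–3 s in compound in 50-50 acetone-water, dried, then infested with 5 second-instar larvae and held 5 days at high humidity. Mortality scored; LC50 from dosage-mortality curves, expressed as percent compound in solution, concentrations from 0.1% downward.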

Compound | LC50 BBA [1] [%] | LC50 HF [2] [µg] | LC50 TBW E (eggs) [3] [%] | LC50 RWW [4] [µg] | LC50 CL [5] [%] | LC50 MW [6] [%] | LC50 BAW [7] [%] | LC50 LH [8] [%] | LC50 TBW C (contact) [9] [%]
CC(C)C(=Nc1ccc(Br)c(Cl)c1)OCc1ccc(F)c(Oc2ccc(Cl)cc2)c1 [Compound 381] | 0.002 | < 100 | 0.018 | > 2.5 | 0.00092 | > 0.01 | – | – | –
CC(C)C(=Nc1ccc(Br)c(Cl)c1)OCc1ccc(F)c(Oc2ccc(F)cc2)c1 [Compound 382] | 0.0003 | < 100 | 0.027 | > 2.5 | 0.00029 | > 0.01 | – | – | –
CC(C)C(=Nc1cccc(Br)c1)OCc1ccc(F)c(Oc2ccccc2)c1 [Compound 387] | 0.0006 | < 100 | 0.05 | > 2.5 | 0.0012 | > 0.01 | – | – | –
CC(C)C(=Nc1ccc(C(F)(F)F)c(Br)c1)OCc1ccc(F)c(Oc2ccc(Cl)cc2)c1 [Compound 377] | 0.001 | < 100 | > 0.1 | > 2.5 | 0.00062 | > 0.01 | – | – | –
Fc1ccc(N=C(OCc2cccc(Oc3ccccc3)c2)C2CC2)cc1Cl [Compound 113] | – | 15 | – | > 2.5 | 0.005 | – | – | – | –
CC(C)C(=Nc1ccc(F)c(Cl)c1)OCc1cccc(Oc2ccc(F)cc2)c1F [Compound 262] | 0.03 | 26 | > 0.1 | > 2.5 | 0.0004 | 0.005 | – | – | –
CC(C)(F)C(=Nc1ccc(F)c(Cl)c1)OCc1ccc(F)c(Oc2ccc(F)cc2)c1 [Compound 310] | 0.0006 | 4.5 | 0.015 | > 2.5 | 0.00006 | – | – | – | –
CCOc1ccc(N=C(OCc2ccc(F)c(Oc3ccccc3)c2)C(C)C)cc1Cl [Compound 370] | 0.0002 | < 100 | 0.02 | > 2.5 | 0.00034 | > 0.01 | – | – | –
CC(C)C(=Nc1ccc(C(F)(F)F)cc1)OCc1ccc(F)c(Oc2ccc(F)cc2)c1 [Compound 314] | – | 21 | 0.012 | 0.11 | 0.00005 | – | – | – | –
CC(C)C(=Nc1ccc(Br)c(Cl)c1)OCc1cccc(Oc2ccc(Cl)cc2)c1 [Compound 380] | 0.004 | > 100 | > 0.1 | > 2.5 | > 0.1 | > 0.01 | – | – | –
CC(C)C(=Nc1ccc(Cl)c(Cl)c1)OCc1ccc(F)c(Oc2ccccc2)c1 [Compound 376] | 0.0003 | 17 | 0.02 | 0.1 | 0.00037 | 0.0061 | – | – | –
CC(C)C(=Nc1ccc(F)c(Cl)c1)OCc1cc(Oc2ccc(F)cc2)ccc1F [Compound 230] | 0.01 | 36 | 0.1 | > 2.5 | 0.0004 | 0.038 | – | – | –
CC(C)C(=Nc1ccc(Br)cc1)OCc1ccc(F)c(Oc2ccc(Cl)cc2)c1 [Compound 378] | 0.0008 | < 100 | 0.02 | > 2.5 | 0.00034 | > 0.01 | – | – | –
CC(C)C(=Nc1ccc(Cl)cc1)OCc1ccc(F)c(Oc2ccc(Cl)cc2)c1 [Compound 391] | 0.0006 | < 100 | 0.035 | > 2.5 | 0.00029 | > 0.01 | – | – | –
CCOc1ccc(N=C(OCc2ccc(F)c(Oc3ccc(Cl)cc3)c2)C(C)C)cc1Cl [Compound 369] | 0.0003 | > 100 | > 0.1 | > 2.5 | 0.0016 | > 0.01 | – | – | –
CC(C)C(=Nc1ccc(F)c(Br)c1)OCc1cccc(Oc2ccccc2)c1 [Compound 254] | 0.001 | 6 | 0.026 | > 2.5 | 0.001 | – | – | – | –
CC(C)C(=Nc1ccc(Cl)c(Cl)c1)OCc1cccc(Oc2ccccc2)c1 [Compound 9] | 0.001 | 14 | 0.02 | – | 0.001 | > 0.01 | 0.0005 | 0.0003 | 0.0008
CC(C)C(=Nc1ccc2c(c1)OCO2)OCc1cccc(Oc2ccc(F)cc2)c1 [Compound 176] | 0.0006 | 1.8 | 0.05 | – | 0.0005 | 0.009 | 0.0035 | > 0.05 | 0.002
C=C(C)C(=Nc1ccc(C(F)(F)F)cc1)OCc1ccc(F)c(Oc2ccccc2)c1 [Compound 431] | 0.0003 | 9.8 | 0.025 | 0.084 | 0.00017 | 0.0037 | – | – | –
CC(C)C(=Nc1ccc(F)c(Cl)c1)OCc1ccc(F)c(Oc2ccc(F)c(F)c2)c1 [Compound 346] | 0.0008 | 7.2 | > 0.1 | – | > 0.1 | > 0.01 | > 0.1 | 0.05 | 0.0002
CC(C)C(=Nc1ccc(Cl)c(OCC(F)(F)F)c1)OCc1ccc(F)c(Oc2ccc(Cl)cc2)c1 [Compound 452] | 0.0003 | > 100 | < 0.1 | 0.1 | 0.0017 | > 0.01 | – | – | –
FC(F)(F)c1ccc(N=C(OCc2cccc(Oc3ccccc3)c2)C(Cl)Cl)cc1 [Compound 61] | 0.001 | 29 | 0.03 | – | 0.001 | > 0.01 | 0.002 | > 0.05 | 0.03
CC(C)C(=Nc1cc(F)cc(C(F)(F)F)c1)OCc1cccc(Oc2ccccc2)c1 [Compound 77] | 0.001 | 10 | 0.03 | – | 0.0005 | > 0.01 | 0.004 | 0.0002 | 0.0004
CC(Cl)C(=Nc1ccc(Cl)cc1)OCc1cccc(Oc2ccccc2)c1 (centres unmarked) [Compound 33] | 0.003 | 17 | > 0.1 | – | 0.01 | > 0.01 | 0.02 | > 0.05 | 0.0025
